According to US8202865B2, “Oxadiazole derivatives” (Merck Serono SA, priority 2007, dated 2012):
Structures can show the parent of a compound that is named as a salt.

molecular target: T1, S1P1 (Homo sapiens, UniProt P21453); test: 35S-GTPγS binding, S1P1 membranes; assay type: biochemical; details: membranes from CHO cells expressing S1P1; 60 min 30° C.
T1 construct: expressed in transfected cells; host or cells: CHO cells (membranes)
Method: Receptor binding assay: Membranes were prepared from CHO cells expressing S1P1 or S1P3 for use in ligand and […] binding studies. Cells were suspended in 50 mM TRIS, pH 7.4, 2 mM EDTA, 250 mM Sucrose (buffer A) and 1× Complete protease inhibitor cocktail (Roche), and disrupted at 4° C. by N2 decompression using a cell disruption bomb (Parr Instrument). Following centrifugation at 1000 RPM for 10 min at 4° C., the supernatant was suspended in buffer A and centrifuged again at 19000 RPM for 60 min at 4° C. The pellet was then suspended in 10 mM HEPES, pH 7.4, 1 mM EDTA, 250 mM Sucrose (Buffer B), and 1× Complete EDTA-free protease inhibitor cocktail and homogenized using a potter. Membranes were flash frozen in liquid N2 and stored at −80° C. [33P]sphingosine 1-phosphate (3000 Ci/mmol; American Radiolabeled Chemicals, Inc.) was added to test compounds in DMSO. Membranes and WGA SPA beads (GE Healthcare) were added to give a final volume of 100 μl in 96-well plates with assay concentrations of 25 pM or 10 pM [33P]sphingosine 1-phosphate (respectively for S1P1 or S1P3), 50 mM HEPES, pH 7.5, 5 mM MgCl2, 100 mM NaCl, 0.4% fatty acid-free BSA, 1-5 μg/well of proteins and 100 μg/well of WGA SPA beads. Binding was performed for 60 min at RT on a shaker and bound radioactivity was measured on a PerkinElmer 1450 MicroBeta counter. Specific binding was calculated by subtracting remaining radioactivity in the presence of 1000-fold excess of unlabeled S1P. Binding data were analyzed using the GraphPad Prism program.
Measurements of ^35S-GTPγS Binding: Membranes (1 to 10 μg protein) prepared as described above, were incubated in 96-well Scintiplates (PerkinElmer) with test compounds diluted in DMSO, in 180 μl of 20 mM HEPES, pH 7.4, 10 mM MgCl2, 2 μg/well Saponin, 0.2% fatty acid free BSA (Assay buffer), 140 mM NaCl and 1.7 μM GDP. The assay was initiated with the addition of 20 μl of 1.5 nM [35S]-GTPγS (1100 Ci/mmol; GE Healthcare) in assay buffer. After 60 min incubation at 30° C. on a shaker, plates were centrifuged for 10 min at 2000 RPM. Supernatant was discarded and membrane bound radioactivity was measured on a PerkinElmer 1450 MicroBeta counter. Triplicate samples were averaged and expressed as % response relative to S1P activation in absence of compound (n=2).

T1 sequence (P21453 whole entry, species assumed): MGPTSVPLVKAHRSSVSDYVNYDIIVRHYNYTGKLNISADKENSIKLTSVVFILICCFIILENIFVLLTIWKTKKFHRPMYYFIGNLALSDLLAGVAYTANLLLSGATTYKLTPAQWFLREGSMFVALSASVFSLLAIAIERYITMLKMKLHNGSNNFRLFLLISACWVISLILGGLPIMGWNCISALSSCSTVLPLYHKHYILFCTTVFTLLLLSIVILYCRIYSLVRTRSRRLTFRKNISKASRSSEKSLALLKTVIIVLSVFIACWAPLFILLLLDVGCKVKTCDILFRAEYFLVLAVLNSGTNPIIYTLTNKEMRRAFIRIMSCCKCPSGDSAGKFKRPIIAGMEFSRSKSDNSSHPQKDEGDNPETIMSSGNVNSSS

Structure (SMILES) | EC50 [µM]
COCc1cc(-c2nc(-c3ccc(C(=O)N(C)CC(=O)OC)c(F)c3)no2)ccc1-c1ccccc1C [Example 116, methyl N-(2-fluoro-4-{5-[2-(methoxymethyl)-2′-methylbiphenyl-4-yl]-1,2,4-oxadiazol-3-yl}benzoyl)-N-methylglycinate] | 0.24
COCc1cc(-c2nc(-c3ccc(C(=O)NCCC(=O)OC)c(F)c3)no2)ccc1-c1ccccc1C [Example 117, Methyl N-(2-fluoro-4-{5-[2-(methoxymethyl)-2′-methylbiphenyl-4-yl]-1,2,4-oxadiazol-3-yl}benzoyl)-beta-alaninate] | 0.009
COCc1cc(-c2nc(-c3ccc(C(=O)NC4(C(=O)O)CC4)c(F)c3)no2)ccc1-c1ccccc1C [Example 120, 1-[(2-fluoro-4-{5-[2-(methoxymethyl)-2′-methylbiphenyl-4-yl]-1,2,4-oxadiazol-3-yl}benzoyl)amino]cyclopropanecarboxylic acid] | 0.058
CCOC(=O)CC(C)NC(=O)c1ccc(-c2noc(-c3ccc(-c4ccccc4C)c(COC)c3)n2)cc1F (stereo not drawn) [Example 121, Ethyl 3-[(2-fluoro-4-{5-[2-(methoxymethyl)-2′-methylbiphenyl-4-yl]-1,2,4-oxadiazol-3-yl}benzoyl)amino]butanoate] | 0.281
COCc1cc(-c2nc(-c3ccc(C(=O)N(C)CC(=O)O)c(F)c3)no2)ccc1-c1ccccc1C [Example 125, N-(2-fluoro-4-{5-[2-(methoxymethyl)-2′-methylbiphenyl-4-yl]-1,2,4-oxadiazol-3-yl}benzoyl)-N-methylglycine] | 0.086
COCc1cc(-c2nc(-c3ccc(C(=O)NCCCC(=O)OC)c(F)c3)no2)ccc1-c1ccccc1C [Example 126, Methyl 4-[(2-fluoro-4-{5-[2-(methoxymethyl)-2′-methylbiphenyl-4-yl]-1,2,4-oxadiazol-3-yl}benzoyl)amino]butanoate] | 0.035
COCc1cc(-c2nc(-c3ccc(C(=O)NC(C)(C)C(=O)OC)c(F)c3)no2)ccc1-c1ccccc1C [Example 128, Methyl N-(2-fluoro-4-{5-[2-(methoxymethyl)-2′-methylbiphenyl-4-yl]-1,2,4-oxadiazol-3-yl}benzoyl)-2-methylalaninate] | 0.154
COCc1cc(-c2nc(-c3ccc(C(=O)NC(C)(C)C(=O)O)c(F)c3)no2)ccc1-c1ccccc1C [Example 129, N-(2-fluoro-4-{5-[2-(methoxymethyl)-2′-methylbiphenyl-4-yl]-1,2,4-oxadiazol-3-yl}benzoyl)-2-methylalanine] | 0.04
CCOC(=O)C1(NC(=O)c2cccc(-c3noc(-c4ccc(-c5ccccc5C)c(COC)c4)n3)c2)CC1 [Example 131, Ethyl 1-[(3-{5-[2-(methoxymethyl)-2′-methylbiphenyl-4-yl]-1,2,4-oxadiazol-3-yl}benzoyl)amino]cyclopropanecarboxylate] | 0.035
COCc1cc(-c2nc(-c3cccc(C(=O)NC4(C(=O)O)CC4)c3)no2)ccc1-c1ccccc1C [Example 133, 1-[(3-{5-[2-(methoxymethyl)-2′-methylbiphenyl-4-yl]-1,2,4-oxadiazol-3-yl}benzoyl)amino]cyclopropanecarboxylic acid] | 0.0216
COCc1cc(-c2nc(-c3cccc(C(=O)NCC(=O)O)c3)no2)ccc1-c1ccccc1C [Example 134, N-(3-{5-[2-(methoxymethyl)-2′-methylbiphenyl-4-yl]-1,2,4-oxadiazol-3-yl}benzoyl)glycine] | 0.0051
COCc1cc(-c2nc(-c3cccc(C(=O)N(C)CC(=O)O)c3)no2)ccc1-c1ccccc1C [Example 138, N-(3-{5-[2-(methoxymethyl)-2′-methylbiphenyl-4-yl]-1,2,4-oxadiazol-3-yl}benzoyl)-N-methylglycine] | 0.0486
COCc1cc(-c2nc(-c3cccc(CN(CC(=O)OC(C)(C)C)C(=O)OC(C)(C)C)c3)no2)ccc1-c1ccccc1C [Example 149, Tert-butyl N-(tert-butoxycarbonyl)-N-(3-{5-[2-(methoxymethyl)-2′-methylbiphenyl-4-yl]-1,2,4-oxadiazol-3-yl}benzyl)glycinate] | 1.24
COCc1cc(-c2nc(-c3ccc(F)c(CN(C)CCC(=O)O)c3)no2)ccc1-c1ccccc1C [Example 154, N-(2-fluoro-5-{5-[2-(methoxymethyl)-2′-methylbiphenyl-4-yl]-1,2,4-oxadiazol-3-yl}benzyl)-N-methyl-beta-alanine, Hydrochloride salt] | 0.0012

Next, values leading:

EC50 [µM] | Structure (SMILES)
0.0086 | COCc1cc(-c2nc(-c3cccc(C(=O)NCC(=O)OC)c3)no2)ccc1-c1ccccc1C [Example 130, Methyl N-(3-{5-[2-(methoxymethyl)-2′-methylbiphenyl-4-yl]-1,2,4-oxadiazol-3-yl}benzoyl)glycinate]
0.0029 | COCc1cc(-c2nc(-c3cccc(C(=O)NCCC(=O)OC)c3)no2)ccc1-c1ccccc1C [Example 132, Methyl N-(3-{5-[2-(methoxymethyl)-2′-methylbiphenyl-4-yl]-1,2,4-oxadiazol-3-yl}benzoyl)-beta-alaninate]
0.0078 | COCc1cc(-c2nc(-c3cccc(C(=O)NCCC(=O)O)c3)no2)ccc1-c1ccccc1C [Example 135, N-(3-{5-[2-(methoxymethyl)-2′-methylbiphenyl-4-yl]-1,2,4-oxadiazol-3-yl}benzoyl)-beta-alanine]
0.046 | COCc1cc(-c2nc(-c3cccc(C(=O)N(C)CC(=O)OC)c3)no2)ccc1-c1ccccc1C [Example 136, Methyl N-(3-{5-[2-(methoxymethyl)-2′-methylbiphenyl-4-yl]-1,2,4-oxadiazol-3-yl}benzoyl)-N-methylglycinate]
0.025 | COCc1cc(-c2nc(-c3cccc(C(=O)NCCCC(=O)OC)c3)no2)ccc1-c1ccccc1C [Example 137, Methyl 4-[(3-{5-[2-(methoxymethyl)-2′-methylbiphenyl-4-yl]-1,2,4-oxadiazol-3-yl}benzoyl)amino]butanoate]
0.0096 | COCc1cc(-c2nc(-c3cccc(C(=O)NCCCC(=O)O)c3)no2)ccc1-c1ccccc1C [Example 139, 4-[(3-{5-[2-(methoxymethyl)-2′-methylbiphenyl-4-yl]-1,2,4-oxadiazol-3-yl}benzoyl)amino]butanoic acid]
0.142 | CCOC(=O)C1(NCc2cccc(-c3noc(-c4ccc(-c5ccccc5C)c(COC)c4)n3)c2)CC1 [Example 140, Ethyl 1-[(3-{5-[2-(methoxymethyl)-2′-methylbiphenyl-4-yl]-1,2,4-oxadiazol-3-yl}benzyl)amino]cyclopropanecarboxylate]
0.0023 | COCc1cc(-c2nc(-c3cccc(CNCCC(=O)OC)c3)no2)ccc1-c1ccccc1C [Example 145, Methyl N-(3-{5-[2-(methoxymethyl)-2′-methylbiphenyl-4-yl]-1,2,4-oxadiazol-3-yl}benzyl)-beta-alaninate]
0.0252 | COCc1cc(-c2nc(-c3cccc(CNCCC(=O)OC(C)(C)C)c3)no2)ccc1-c1ccccc1C [Example 153, tert-butyl N-(3-{5-[2-(methoxymethyl)-2′-methylbiphenyl-4-yl]-1,2,4-oxadiazol-3-yl}benzyl)-beta-alaninate]
0.0004 | COCc1cc(-c2nc(-c3cccc(CNCCC(=O)O)c3)no2)ccc1-c1ccccc1C [Example 155, N-(3-{5-[2-(methoxymethyl)-2′-methylbiphenyl-4-yl]-1,2,4-oxadiazol-3-yl}benzyl)-beta-alanine, Hydrochloride salt]
